Test results as given in publication PMC9496400, “Structural Comparison of hMDH2 Complexed with Natural Substrates and Cofactors: The Importance of Phosphate Binding for Active Conformation and Catalysis” (Biomolecules, 2022).

What was measured:
Format in all cases: binding
[1] = molecular target: T1, human mitochondrial malate dehydrogenase (hMDH2) (Homo sapiens, UniProt P40926); assay: crystal structure ([…] Å; also with NAD, 4WLU, […] Å)
T1 construct: gene MDH2
T1 sequence (P40926 19-338): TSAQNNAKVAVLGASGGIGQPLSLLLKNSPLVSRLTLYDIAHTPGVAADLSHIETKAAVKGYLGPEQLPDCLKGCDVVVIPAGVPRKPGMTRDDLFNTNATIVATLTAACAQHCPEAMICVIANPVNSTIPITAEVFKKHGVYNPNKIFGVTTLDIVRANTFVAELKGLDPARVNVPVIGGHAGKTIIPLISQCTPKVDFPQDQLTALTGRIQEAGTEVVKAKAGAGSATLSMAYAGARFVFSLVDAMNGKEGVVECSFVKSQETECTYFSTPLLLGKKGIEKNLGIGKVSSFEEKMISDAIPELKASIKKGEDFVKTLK

[2] = molecular target: T1, human mitochondrial malate dehydrogenase (hMDH2); assay: ITC direct titration; crystal structure with oxaloacetate
[3] = molecular target: T1, human mitochondrial malate dehydrogenase (hMDH2); assay: crystal structure ([…] Å); competitive replacement ITC with NADH
[4] = molecular target: T1, human mitochondrial malate dehydrogenase (hMDH2); assay: crystal structure ([…] Å)
[5] = molecular target: T1, human mitochondrial malate dehydrogenase (hMDH2); assay: crystal structure of the ternary complex with NADH ([…] Å)
[6] = molecular target: T1, human mitochondrial malate dehydrogenase (hMDH2); assay: crystal structure ([…] Å); enzyme activity increased by phosphate

O=C(O)C[C@H](O)C(=O)O [L-malate]
crystal structure (2.20 Å; also with NAD, 4WLU, 2.14 Å) [1]: Both L-malate and citrate bound in the same site of hMDH2 and formed hydrogen bonds with the surrounding residues

NC(=O)C1=CN([C@@H]2O[C@H](COP(=O)(O)OP(=O)(O)OC[C@H]3O[C@@H](n4cnc5c(N)ncnc54)[C@H](O)[C@@H]3O)[C@@H](O)[C@H]2O)C=CC1 [NADH]
Kd [2]: 3.05 µM

NC(=O)c1ccc[n+]([C@@H]2O[C@H](COP(=O)([O-])OP(=O)(O)OC[C@H]3O[C@@H](n4cnc5c(N)ncnc54)[C@H](O)[C@@H]3O)[C@@H](O)[C@H]2O)c1 [NAD]
Kd [3]: 2.31 mM

O=C(O)CC(O)(CC(=O)O)C(=O)O [citrate]
crystal structure (1.90 Å) [4]: The citrate occupied the substrate binding site in the refined structure.

O=C(O)CC(=O)C(=O)O [oxaloacetate]
crystal structure of the ternary complex with NADH (2.50 Å) [5]: Arg104 paired with only one oxygen atom of oxaloacetate

O=P(O)(O)O [phosphate]
crystal structure (2.28 Å); enzyme activity increased by phosphate [6]: two phosphate ions were located in the substrate binding site and a third in the position of the ribose ring
